Measured values published in ChEMBL document CHEMBL1909294, “Translating clinical findings into knowledge in drug safety evaluation--drug induced liver injury prediction system (DILIps)” (PLoS Comput Biol, 2011).

Columns and labels:
Hepatotoxicity [1] = tested on: Hepatotoxicity;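 as to HepSE Combined Scores: combined hepatic side effect score as listed in the training data of the Drug Induced Liver Injury Prediction System (DILIps)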;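 as to HepSE bilirubinemia: bilirubinemia hepatic side effect score drawn from the DILIps training data, a prediction system for drug-induced liver injury; call rule not given here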;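 as to HepSE cirrhosis: cirrhosis hepatic side effect score taken from the DILIps (drug-induced liver injury prediction) training set; call rule not given here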;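 as to HepSE elevated liver function tests: hepatic side effect score for raised liver function tests, as recorded in the DILIps training set used for predicting drug-induced liver injury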; as to HepSE hepatic failure: call rule not given here;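 as to HepSE hepatomegaly: hepatic side effect score for hepatomegaly, taken from the training set of the DILIps drug-induced liver injury prediction system; call rule not given here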; as to HepSE liver disease: call rule not given here
Hepatotoxicity [2] = tested on: Hepatotoxicity; remark: listed apart in the source;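 as to HepSE Combined Scores: combined hepatic side effect score as listed in the training data of the Drug Induced Liver Injury Prediction System (DILIps)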;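 as to HepSE bilirubinemia: bilirubinemia hepatic side effect score drawn from the DILIps training data, a prediction system for drug-induced liver injury; call rule not given here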;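 as to HepSE cirrhosis: cirrhosis hepatic side effect score taken from the DILIps (drug-induced liver injury prediction) training set; call rule not given here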;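 as to HepSE elevated liver function tests: hepatic side effect score for raised liver function tests, as recorded in the DILIps training set used for predicting drug-induced liver injury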; as to HepSE hepatic failure: call rule not given here;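 as to HepSE hepatomegaly: hepatic side effect score for hepatomegaly, taken from the training set of the DILIps drug-induced liver injury prediction system; call rule not given here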; as to HepSE liver disease: call rule not given here
Hepatotoxicity [3] = tested on: Hepatotoxicity; remark: listed apart in the source;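 as to HepSE Combined Scores: combined hepatic side effect score as listed in the training data of the Drug Induced Liver Injury Prediction System (DILIps)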;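 as to HepSE bilirubinemia: bilirubinemia hepatic side effect score drawn from the DILIps training data, a prediction system for drug-induced liver injury; call rule not given here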;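 as to HepSE cirrhosis: cirrhosis hepatic side effect score taken from the DILIps (drug-induced liver injury prediction) training set; call rule not given here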;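 as to HepSE elevated liver function tests: hepatic side effect score for raised liver function tests, as recorded in the DILIps training set used for predicting drug-induced liver injury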; as to HepSE hepatic failure: call rule not given here;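 as to HepSE hepatomegaly: hepatic side effect score for hepatomegaly, taken from the training set of the DILIps drug-induced liver injury prediction system; call rule not given here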; as to HepSE liver disease: call rule not given here
Hepatotoxicity [4] = tested on: Hepatotoxicity; remark: listed apart in the source;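 as to HepSE Combined Scores: combined hepatic side effect score as listed in the training data of the Drug Induced Liver Injury Prediction System (DILIps)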;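 as to HepSE bilirubinemia: bilirubinemia hepatic side effect score drawn from the DILIps training data, a prediction system for drug-induced liver injury; call rule not given here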;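 as to HepSE cirrhosis: cirrhosis hepatic side effect score taken from the DILIps (drug-induced liver injury prediction) training set; call rule not given here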;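 as to HepSE elevated liver function tests: hepatic side effect score for raised liver function tests, as recorded in the DILIps training set used for predicting drug-induced liver injury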; as to HepSE hepatic failure: call rule not given here;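 as to HepSE hepatomegaly: hepatic side effect score for hepatomegaly, taken from the training set of the DILIps drug-induced liver injury prediction system; call rule not given here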; as to HepSE liver disease: call rule not given here
Hepatotoxicity [5] = tested on: Hepatotoxicity; remark: listed apart in the source; as to HepSE liver disease: call rule not given here
Hepatotoxicity [6] = tested on: Hepatotoxicity; remark: listed apart in the source; as to HepSE liver disease: call rule not given here
Hepatotoxicity [7] = tested on: Hepatotoxicity; remark: listed apart in the source
Hepatotoxicity [8] = tested on: Hepatotoxicity; remark: listed apart in the source
Hepatotoxicity [9] = tested on: Hepatotoxicity; remark: listed apart in the source
Hepatotoxicity [10] = tested on: Hepatotoxicity; remark: listed apart in the source
Hepatotoxicity [11] = tested on: Hepatotoxicity; remark: listed apart in the source
Hepatotoxicity [12] = tested on: Hepatotoxicity; remark: listed apart in the source
Hepatotoxicity [13] = tested on: Hepatotoxicity; remark: listed apart in the source
Hepatotoxicity [14] = tested on: Hepatotoxicity; remark: listed apart in the source

SMILES | HepSE_cirrhosis (Hepatotoxicity [1]) | HepSE_liver disease (Hepatotoxicity [2]) | HepSE_Combined Scores (Hepatotoxicity [3]) | HepSE_hepatomegaly (Hepatotoxicity [4]) | HepSE_elevated liver function tests (Hepatotoxicity [5]) | HepSE_bilirubinemia (Hepatotoxicity [6]) | HepSE_hepatic failure (Hepatotoxicity [7]) | HepSE_hepatic necrosis (Hepatotoxicity [8]) | HepSE_cholecystitis (Hepatotoxicity [9]) | HepSE_hepatitis (Hepatotoxicity [10]) | HepSE_liver function tests abnormal (Hepatotoxicity [11]) | HepSE_jaundice (Hepatotoxicity [12]) | HepSE_liver fatty (Hepatotoxicity [13]) | HepSE_cholelithiasis (Hepatotoxicity [14]) | also measured
CC(=O)[C@]1(O)Cc2c(O)c3c(c(O)c2[C@@H](O[C@H]2C[C@H](N)[C@H](O)[C@H](C)O2)C1)C(=O)c1ccccc1C3=O [IDARUBICIN] | 0 | 0 | 0 | 0 | 0 | 0 | 0 | 0 | 0 | 0 | 0 | 0 | 0 | 0 | 
CN(C)CCc1c[nH]c2ccc(CS(=O)(=O)N3CCCC3)cc12 [ALMOTRIPTAN] | 0 | 0 | 0 | 0 | 0 | 0 | 0 | 0 | 0 | 0 | 0 | 0 | 0 | 0 | 
Nc1nc2[nH]cc(CCc3ccc(C(=O)N[C@@H](CCC(=O)O)C(=O)O)cc3)c2c(=O)[nH]1 [PEMETREXED] | 0 | 0 | 0 | 0 | 0 | 0 | 0 | 0 | 0 | 0 | 0 | 0 | 0 | 0 | 
CCCc1cc(=O)[nH]c(=S)[nH]1 [PROPYLTHIOURACIL] |  |  |  |  |  |  |  |  |  |  |  |  |  |  | HepSE_cirrhosis (Hepatotoxicity [1]; Liver): 0; HepSE_liver disease (Hepatotoxicity [2]; Liver): 0; HepSE_Combined Scores (Hepatotoxicity [3]; Liver): 2; HepSE_hepatomegaly (Hepatotoxicity [4]; Liver): 0; HepSE_elevated liver function tests (Hepatotoxicity [5]; Liver): 0; HepSE_bilirubinemia (Hepatotoxicity [6]; Liver): 0; HepSE_hepatic failure (Hepatotoxicity [7]; Liver): 0; HepSE_hepatic necrosis (Hepatotoxicity [8]; Liver): 0; HepSE_cholecystitis (Hepatotoxicity [9]; Liver): 0; HepSE_hepatitis (Hepatotoxicity [10]; Liver): 1; HepSE_liver function tests abnormal (Hepatotoxicity [11]; Liver): 0; HepSE_jaundice (Hepatotoxicity [12]; Liver): 1; HepSE_liver fatty (Hepatotoxicity [13]; Liver): 0; HepSE_cholelithiasis (Hepatotoxicity [14]; Liver): 0
C[C@]1(O)CC[C@H]2[C@@H]3CCC4=CC(=O)CC[C@]4(C)[C@@]3(F)[C@@H](O)C[C@@]21C [FLUOXYMESTERONE] | 0 | 0 | 1 | 0 | 0 | 0 | 0 | 0 | 0 | 0 | 0 | 1 | 0 | 0 | 
Cl.N [AMMONIUM CHLORIDE] | 0 | 0 | 0 | 0 | 0 | 0 | 0 | 0 | 0 | 0 | 0 | 0 | 0 | 0 | 
Cn1c(=O)c2c(ncn2C)n(C)c1=O [CAFFEINE] | 0 | 0 | 0 | 0 | 0 | 0 | 0 | 0 | 0 | 0 | 0 | 0 | 0 | 0 | 
O=P1(NCCCl)OCCCN1CCCl (configuration not stated) [IFOSFAMIDE] | 0 | 0 | 0 | 0 | 0 | 0 | 0 | 0 | 0 | 0 | 0 | 0 | 0 | 0 | 
C=CC1=C(C(=O)O)N2C(=O)[C@@H](NC(=O)/C(=N\OCC(=O)O)c3csc(N)n3)[C@H]2SC1 [CEFIXIME] | 0 | 0 | 3 | 0 | 0 | 1 | 0 | 0 | 0 | 1 | 0 | 1 | 0 | 0 | 
COc1c2occc2cc2ccc(=O)oc12 [METHOXSALEN] | 0 | 0 | 0 | 0 | 0 | 0 | 0 | 0 | 0 | 0 | 0 | 0 | 0 | 0 | 
O=[N+]([O-])O[C@@H]1CO[C@H]2[C@@H]1OC[C@@H]2O [ISOSORBIDE MONONITRATE] | 0 | 0 | 2 | 1 | 0 | 0 | 0 | 0 | 1 | 0 | 0 | 0 | 0 | 0 | 
COc1ccc(OC)c(C(O)CNC(=O)CN)c1 (configuration not stated) [MIDODRINE] | 0 | 0 | 0 | 0 | 0 | 0 | 0 | 0 | 0 | 0 | 0 | 0 | 0 | 0 | 
CC[C@H](C)[C@@H]1NC(=O)[C@H](Cc2ccc(O)cc2)NC(=O)[C@@H](N)CSSC[C@@H](C(=O)N2CCC[C@H]2C(=O)N[C@@H](CC(C)C)C(=O)NCC(N)=O)NC(=O)[C@H](CC(N)=O)NC(=O)[C@H](CCC(N)=O)NC1=O [OXYTOCIN] | 0 | 0 | 0 | 0 | 0 | 0 | 0 | 0 | 0 | 0 | 0 | 0 | 0 | 0 | 
